US7405223B2, “Treating allergic and inflammatory conditions” (priority 2000, dated 2008)
Marks after values point to notes of the source that are not given here.

Experiments:
[1] = clinical; settings: both, human, plasma, po, 5 mg
[2] = log-transformed values, 7.5 mg once daily
[3] = tested on: seasonal allergic rhinitis patients; assay: Double-blinded, randomized clinical trials in seasonal allergic rhinitis patients
[4] = clinical; settings: human, plasma, po, 7.5 mg, Day 14, 7.5 mg once daily oral; for Cmax: mean (% CV); for half-life: t1/2, mean (% CV)
[5] = Day 10, DL 5 mg once daily oral
[6] = steady state, Day 10, DL 5 mg once daily oral

SMILES: Oc1cnc2c(c1)CCc1cc(Cl)ccc1C2=C1CCNCC1 [3-OH desloratadine, 3-hydroxydesloratadine]
- t1/2, arithmetic mean [5]: 36.0 h
- t1/2, harmonic mean [5]: 34.0^c hr
- AUC(0-24 hr), arithmetic mean [6]: 32.3 ng·h/mL
- AUC(0-24 hr), geometric mean [6]: 30.4 ng·h/mL
- Cmax, arithmetic mean [6]: 1.99 ng/mL
- Cmax, geometric mean [6]: 1 .87 ng/mL
- Tmax, arithmetic mean [6]: 4.76 h
- Tmax, median (geometric mean) [6]: 5 h

SMILES: Clc1ccc2c(c1)CCc1cccnc1C2=C1CCNCC1 [desloratadine]
- concentration at 8 day [1]: 1.31 ng/mL
- concentration at 9 day [1]: 1.33 ng/mL
- increase in t1/2 in elderly subjects >=65 years old compared with younger subjects (5 mg once daily for 10 days): ~30%
- AUC higher in female subjects compared with male subjects [2]: 3%
- Cmax higher in female subjects compared with male subjects [2]: 10%
- reduction of nasal symptoms versus placebo ([3]; 5 mg): significantly (p<0.01) more effective than placebo
- total symptom scores ([3]; 5 mg once daily): significantly reduced
- AM NOW total symptom score ([3]; 24 hours after dose, entire 5 mg to 20 mg dosage range): Statistically significant (p<0.05) reductions were maintained for the full 24 hour dosing interval
- differences in effectiveness across subgroups defined by gender, age, or race ([3]; entire 5 mg to 20 mg dosage range): no significant differences
- Cmax ([4]; female, Black women): 6.73 ng/mL
- Cmax ([4]; female, White women): 5.46 ng/mL
- half-life ([4]; female, Black women): 2120 min
- half-life ([4]; female, White women): 1790 min
- Cmax ([4]; male, White men): 6.05 ng/mL
- half-life ([4]; male, Black men): 2520 min
- half-life ([4]; male, White men): 2160 min
